From patent publication US20250340510A1, “Substituted Phenylbenzenesulfonamide Derivatives and Uses Thereof” (Nine Square Therapeutics Corporation, priority 2022, published 2025)

Molecular target: TRPML1 (Homo sapiens, UniProt Q9GZU1)
Test: Calcium flux in HEK293 overexpressing TRPML1 plasma membrane variant (FLIPR, Calcium 6 dye)
Type: cell-based
Conditions: HEK293/TRPML1-PM clone A5 cells; 4-parameter logistic fit; read-out: TRPML1 calcium flux (FLIPR) dose response: EC50
Description: Example B1. Calcium Flux in HEK293 Overexpressing TRPML1 Plasma Membrane Variant—Calcium 6 Dye
Cells: HEK293/TRPML1-PM clone A5, clonal cell line containing mutant TRPML1 (both N- and C-terminal dileucine targeting motifs deleted) that localizes to the plasma membrane
Plates: Perkin Elmer Viewplate cat. #6007460, black optically clear, tissue culture treated 384-well plate
Calcium dye: Molecular Devices FLIPR Calcium 6 Assay Kit, cat. #R8190 or Fluo-4 Direct from Thermo Fisher, cat. #F10471
Tips: Molecular Devices 384-well FLIPR Tetra black tips, cat. #9000-0764 Example B1.2 Method
HEK293/TRPML1-PM clone A5 cells were trypsinized from flasks, counted, then diluted in media to 15,000 cells per 25 μL, and seeded into a black, 384-well viewplate, and cultured overnight.
One vial of calcium 6 dye was diluted with 10 mL of assay buffer (HBSS+20 mM HEPES pH 7.4) and 25 μL of the dilution was added per well to the cells.
After incubating for 2 hours at 37° C., the plate was moved to the FLIPR in the read position.
The compounds were diluted in EMEM with 0.125% FBS to 5× concentration and loaded in a 384-well plate according to the desired plate map for the assay, including DMSO alone and carbachol controls, then the plate was moved to the FLIPR in the source 2 position.
A box of tips was placed in the source 1 position within the FLIPR to complete the assay set up.
Once the run was started, an initial baseline fluorescent measurement was performed for 10 seconds (470-495 nm excitation and 515-575 nm emission) prior to adding the compounds.
12.5 μL of 5× test compound, DMSO alone, or carbachol were added via the FLIPR and real-time fluorescence measurements were performed for an additional 170 seconds with 1 read per second.
The data was normalized to baseline by calculating maximum fluorescence minus minimum fluorescence and plotted as response (fold) over the baseline versus log ([…] concentration). The EC50 was determined using a 4-parameter logistic curve fit in Graphpad Prism 9.

TRPML1, sequence (Q9GZU1 17-572 limits assumed): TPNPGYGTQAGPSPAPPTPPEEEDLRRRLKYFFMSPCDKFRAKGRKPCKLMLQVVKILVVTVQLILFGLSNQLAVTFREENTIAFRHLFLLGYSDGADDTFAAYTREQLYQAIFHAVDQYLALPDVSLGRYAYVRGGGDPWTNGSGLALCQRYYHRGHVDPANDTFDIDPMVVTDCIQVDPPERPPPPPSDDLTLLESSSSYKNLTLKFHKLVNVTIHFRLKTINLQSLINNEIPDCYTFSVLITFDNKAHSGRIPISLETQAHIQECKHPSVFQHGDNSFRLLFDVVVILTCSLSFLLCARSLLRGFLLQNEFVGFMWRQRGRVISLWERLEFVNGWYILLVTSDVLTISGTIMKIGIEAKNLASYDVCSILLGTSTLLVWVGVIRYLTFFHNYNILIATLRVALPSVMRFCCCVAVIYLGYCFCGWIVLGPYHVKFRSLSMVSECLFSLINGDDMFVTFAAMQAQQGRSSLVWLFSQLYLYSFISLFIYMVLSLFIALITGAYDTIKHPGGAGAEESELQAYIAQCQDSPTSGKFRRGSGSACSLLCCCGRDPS

EC50 [µM] | SMILES
3.72 | CN(CC1CCOC1)c1ccccc1NS(=O)(=O)c1ccc(S(=O)(=O)N(C)C)cc1 (centres unmarked) [Compound 112, N1,N1-dimethyl-N4-(2-(methyl((tetrahydrofuran-3-yl)methyl)amino)phenyl)benzene-1,4-disulfonamide]
1.24 | CN(c1ccc(Cl)cc1NS(=O)(=O)c1ccc(S(=O)(=O)N(C)C)cc1)C1CCCCC1 [Compound 1, N1-(5-chloro-2-(cyclohexyl(methyl)amino)phenyl)-N4,N4-dimethylbenzene-1,4-disulfonamide]
0.51 | CC(C)CN(C)c1ccccc1NS(=O)(=O)c1ccc(S(=O)(=O)N(C)C)cc1 [Compound 7, N1-(2-(isobutyl(methyl)amino)phenyl)-N4,N4-dimethylbenzene-1,4-disulfonamide]
1.97 | CN(c1ccccc1NS(=O)(=O)c1ccc(S(=O)(=O)N(C)C)cc1)C1CCCCC1(F)F (centres unmarked) [Compound 103, N1-(2-((2,2-difluorocyclohexyl) (methyl)amino)phenyl)-N4,N4-dimethylbenzene-1,4-disulfonamide]
5.78 | CN(c1cccc(Cl)c1NS(=O)(=O)c1ccc(S(=O)(=O)N(C)C)cc1)C1CCCCC1 [Compound 52, N1-(2-chloro-6-(cyclohexyl(methyl)amino)phenyl)-N4,N4-dimethylbenzene-1,4-disulfonamide]
1.39 | CN(CC1CCCO1)c1ccccc1NS(=O)(=O)c1ccc(S(=O)(=O)N(C)C)cc1 (centres unmarked) [Compound 107, N1,N1-dimethyl-N4-(2-(methyl((tetrahydrofuran-2-yl)methyl)amino)phenyl)benzene-1,4-disulfonamide]
> 10 | CN(CC1COC1)c1ccccc1NS(=O)(=O)c1ccc(S(=O)(=O)N(C)C)cc1 [Compound 47, N1,N1-dimethyl-N4-(2-(methyl(oxetan-3-ylmethyl)amino)phenyl)benzene-1,4-disulfonamide]
2.37 | CCCN(C)c1ccccc1NS(=O)(=O)c1ccc(S(=O)(=O)N(C)C)cc1 [Compound 16, N1,N1-dimethyl-N4-(2-(methyl(propyl)amino)phenyl)benzene-1,4-disulfonamide]
2.53 | CN(Cc1ccn(C2CC2)n1)c1ccccc1NS(=O)(=O)c1ccc(S(=O)(=O)N(C)C)cc1 [Compound 94, N1-(2-(((1-cyclopropyl-1H-pyrazol-3-yl)methyl)(methyl)amino)phenyl)-N4,N4-dimethylbenzene-1,4-disulfonamide]
0.33 | Cc1ccc(NS(=O)(=O)c2ccc(S(=O)(=O)N(C)C)cc2)c(N(C)C2CCCCC2)c1 [Compound 35, N1-(2-(cyclohexyl(methyl)amino)-4-methylphenyl)-N4,N4-dimethylbenzene-1,4-disulfonamide]
4.76 | CN(c1cccc(F)c1NS(=O)(=O)c1ccc(S(=O)(=O)N(C)C)cc1)C1CCCCC1 [Compound 3, N1-(2-(cyclohexyl(methyl)amino)-6-fluorophenyl)-N4,N4-dimethylbenzene-1,4-disulfonamide]
11 | CN(C)S(=O)(=O)c1ccc(S(=O)(=O)Nc2ccccc2N(C(=O)C(F)(F)F)C2CCCCC2)cc1 [Compound 63, N-cyclohexyl-N-(2-((4-(N,N-dimethylsulfamoyl)phenyl)sulfonamido)phenyl)-2,2,2-trifluoroacetadmie]
0.41 | CN(c1ccccc1NS(=O)(=O)c1ccc(S(=O)(=O)N(C)C)cc1)C1CC(F)(F)C1 [Compound 40, N1-(2-((3,3-difluorocyclobutyl) (methyl)amino)phenyl)-N4,N4-dimethylbenzene-1,4-disulfonamide]
1.16 | CN(CC1CCOC(C)(C)C1)c1ccccc1NS(=O)(=O)c1ccc(S(=O)(=O)N(C)C)cc1 (centres unmarked) [Compound 100, N1-(2-(((2,2-dimethyltetrahydro-2H-pyran-4-yl)methyl)(methyl)amino)phenyl)-N4,N4-dimethylbenzene-1,4-disulfonamide]
3.46 | CCN(C)c1ccccc1NS(=O)(=O)c1ccc(S(=O)(=O)N(C)C)cc1 [Compound 9, N1-(2-(ethyl(methyl)amino)phenyl)-N4,N4-dimethylbenzene-1,4-disulfonamide]
2.1 | CN(CC1CCOCC1)c1ccccc1NS(=O)(=O)c1ccc(S(=O)(=O)N(C)C)cc1 [Compound 11, N1,N1-dimethyl-N4-(2-(methyl((tetrahydro-2H-pyran-4-yl)methyl)amino)phenyl)benzene-1,4-disulfonamide]

Continued, molecule first:

SMILES | EC50 [µM]
Cc1nn(C)cc1CN(C)c1ccccc1NS(=O)(=O)c1ccc(S(=O)(=O)N(C)C)cc1 [Compound 50, N1-(2-(((1,3-dimethyl-1H-pyrazol-4-yl)methyl)(methyl)amino)phenyl)-N4,N4-dimethylbenzene-1,4-disulfonamide] | 6.55
Cc1cnccc1CN(C)c1ccccc1NS(=O)(=O)c1ccc(S(=O)(=O)N(C)C)cc1 [Compound 58, N1,N1-dimethyl-N4-(2-(methyl((3-methylpyridin-4-yl)methyl)amino)phenyl)benzene-1,4-disulfonamide] | 6.88
Cc1ncc(F)cc1CN(C)c1ccccc1NS(=O)(=O)c1ccc(S(=O)(=O)N(C)C)cc1 [Compound 75, N1-(2-(((5-fluoro-2-methylpyridin-3-yl)methyl)(methyl)amino)phenyl)-N4,N4-dimethylbenzene-1,4-disulfonamide] | 2.14
CCn1cnc(CN(C)c2ccccc2NS(=O)(=O)c2ccc(S(=O)(=O)N(C)C)cc2)c1 [Compound 44, N1-(2-(((1-ethyl-1H-imidazol-4-yl)methyl)(methyl)amino)phenyl)-N4,N4-dimethylbenzene-1,4-disulfonamide] | > 10
Cc1ncsc1CN(C)c1ccccc1NS(=O)(=O)c1ccc(S(=O)(=O)N(C)C)cc1 [Compound 51, N1,N1-dimethyl-N4-(2-(methyl((4-methylthiazol-5-yl)methyl)amino)phenyl)benzene-1,4-disulfonamide] | 3.05
CN(CCN1CCOCC1)c1ccccc1NS(=O)(=O)c1ccc(S(=O)(=O)N(C)C)cc1 [Compound 15, N1,N1-dimethyl-N4-(2-(methyl(2-morpholinoethyl)amino)phenyl) benzene-1,4-disulfonamide] | > 10
CN1CCC(N(C)c2ccccc2NS(=O)(=O)c2ccc(S(=O)(=O)N(C)C)cc2)CC1 [Compound 21, N1,N1-dimethyl-N4-(2-(methyl(1-methylpiperidin-4-yl)amino)phenyl)benzene-1,4-disulfonamide] | > 10
CN(Cc1cccnc1)c1ccccc1NS(=O)(=O)c1ccc(S(=O)(=O)N(C)C)cc1 [Compound 57, N1,N1-dimethyl-N4-(2-(methyl(pyridin-3-ylmethyl)amino)phenyl)benzene-1,4-disulfonamide] | 4.61
CCOCCCN(C)c1ccccc1NS(=O)(=O)c1ccc(S(=O)(=O)N(C)C)cc1 [Compound 113, N1-(2-((3-ethoxypropyl)(methyl)amino)phenyl)-N4,N4-dimethylbenzene-1,4-disulfonamide] | > 10
COCC1(C)CCC(CN(C)c2ccccc2NS(=O)(=O)c2ccc(S(=O)(=O)N(C)C)cc2)CC1 (centres unmarked) [Compound 39, N1-(2-(((4-(methoxymethyl)-4-methylcyclohexyl)methyl)(methyl)amino)phenyl)-N4,N4-dimethylbenzene-1,4-disulfonamide] | 0.42
CN(Cc1cscn1)c1ccccc1NS(=O)(=O)c1ccc(S(=O)(=O)N(C)C)cc1 [Compound 45, N1,N1-dimethyl-N4-(2-(methyl(thiazol-4-ylmethyl)amino)phenyl)benzene-1,4-disulfonamide] | 2.06
CN(CCCn1cccn1)c1ccccc1NS(=O)(=O)c1ccc(S(=O)(=O)N(C)C)cc1 [Compound 105, N1-(2-((3-(1H-pyrazol-1-yl)propyl)(methyl)amino)phenyl)-N4,N4-dimethylbenzene-1,4-disulfonamide] | 4.36
CN(Cc1ccncc1)c1ccccc1NS(=O)(=O)c1ccc(S(=O)(=O)N(C)C)cc1 [Compound 8, N1,N1-dimethyl-N4-(2-(methyl(pyridin-4-ylmethyl)amino)phenyl) benzene-1,4-disulfonamide] | 3.69
CN(Cc1cncn1C)c1ccccc1NS(=O)(=O)c1ccc(S(=O)(=O)N(C)C)cc1 [Compound 56, N1,N1-dimethyl-N4-(2-(methyl((1-methyl-1H-imidazol-5-yl)methyl)amino)phenyl)benzene-1,4-disulfonamide] | > 10
CN(Cc1cnsc1)c1ccccc1NS(=O)(=O)c1ccc(S(=O)(=O)N(C)C)cc1 [Compound 101, N1-(2-((isothiazol-4-ylmethyl)(methyl)amino)phenyl)-N4,N4-dimethylbenzene-1,4-disulfonamide] | 3.02
CN(Cc1cn(C)cn1)c1ccccc1NS(=O)(=O)c1ccc(S(=O)(=O)N(C)C)cc1 [Compound 59, N1,N1-dimethyl-N4-(2-(methyl((1-methyl-1H-imidazol-4-yl)methyl)amino)phenyl)benzene-1,4-disulfonamide] | 2.24
